Test results: US20060069132A1, “Azolecarboxamide herbicides” (priority 2004, published 2006)

Columns and labels:
velvetleaf = assay: Test B pre-/postemergence herbicide test; format: in vivo, Abutilon theophrasti
How it was run: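 Flooded paddy rice and barnyardgrass were treated at the 2-leaf stage; upland plantings received compound either on sown seed or on 1- to 4-leaf seedlings. All were kept 13–15 days in a greenhouse and scored visually, 0–100, relative to untreated plants.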

cocklebur = assay: Test C pre-/postemergence herbicide test; format: in vivo, Xanthium strumarium
How it was run: (§1)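 Visual injury scores run from 0 (no effect) to 100 (complete control), assessed relative to untreated controls 12 to 14 days after treatment in the greenhouse. Chemicals were formulated in a non-phytotoxic solvent mixture with surfactant and applied to soil after planting or to emerged plants at the 1- to 4-leaf stage.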

soybean = assay: Test C pre-/postemergence herbicide test; format: in vivo, Glycine max
How it was run: as §1

eastern black nightshade = assay: Test C pre-/postemergence herbicide test; format: in vivo, Solanum ptycanthum; settings: for Plant response rating, Nightshade / Plant response rating (0 = no effect, 100 = complete control), Nightshade: preemergence; for Nightshade plant response rating: Preemergence, scale 0 to 100, 0 no effect, 100 complete control
How it was run: as §1

johnsongrass = assay: Test C pre-/postemergence herbicide test; format: in vivo, Sorghum halepense
How it was run: as §1

bermudagrass = assay: Test C pre-/postemergence herbicide test; format: in vivo, Cynodon dactylon
How it was run: as §1

[1] = postemergence, 125 g ai/ha, visual rating, scale 0 (no effect) to 100 (complete control)
[2] = preemergence, 125 g ai/ha, 0 to 100 scale, 0 is no effect, 100 is complete control
[3] = 250 g ai/ha, scale 0 to 100 (0 no effect, 100 complete control), visual, 12 to 14 days, preemergence
[4] = Preemergence, 500 g ai/ha, scale 0 to 100, 0 no effect, 100 complete control
[5] = 62 g ai/ha, preemergence, scale 0 to 100
[6] = 125 g ai/ha, scale 0 (no effect) to 100 (complete control), visual, 12 to 14 days, preemergence
[7] = 125 g ai/ha, scale 0 (no effect) to 100 (complete control), visual, 12 to 14 days
[8] = 62 g ai/ha, preemergence, scale 0 to 100, 0 no effect, 100 complete control
[9] = 250 g ai/ha, scale 0-100, preemergence
[10] = 500 g ai/ha, scale 0 to 100 (0 no effect, 100 complete control), visual, 12 to 14 days, preemergence
[11] = Postemergence, 500 g ai/ha, scale 0 to 100
[12] = Postemergence, 125 g ai/ha, scale 0 to 100, 0 no effect, 100 complete control
[13] = Postemergence, 250 g ai/ha, scale 0 to 100, 0 no effect, 100 complete control
[14] = postemergence, 62 g ai/ha, scale 0 to 100

CCn1nc(C(C)(C)C)cc1C(=O)Nc1cccc(C(N)=O)n1 [Compound 162, 6-[[[3-(1,1-dimethylethyl)-1-ethyl-1H-pyrazol-5-yl]carbonyl]amino]-2-pyridinecarboxamide]
Plant response rating, Velvetleaf (velvetleaf; 500 g ai/ha, visual rating 0-100, 0 no effect, 100 complete control, preemergence): 100
Velvetleaf plant response rating (velvetleaf; [1]): 60
Velvetleaf plant response rating (velvetleaf; postemergence, 500 g ai/ha, visual rating, scale 0 (no effect) to 100 (complete control)): 80
Plant response rating, Velvetleaf (velvetleaf; [2]): 90
Plant response rating, Cocklebur (cocklebur; [3]): 65
Cocklebur plant response rating (cocklebur; [4]): 75
Plant response rating, Soybean (soybean; [5]): 15
Plant response rating, Soybean (soybean; [6]): 75
Soybean plant response rating (soybean; [4]): 100
Plant response rating, Nightshade (eastern black nightshade; 62 g ai/ha, scale 0 to 100): 80
Plant response rating, Nightshade (eastern black nightshade; [7]): 100
Nightshade plant response rating (eastern black nightshade; 500 g ai/ha): 100
Plant response rating, Johnsongrass (johnsongrass; [5]): 65
Plant response rating, Johnsongrass (johnsongrass; [6]): 80
Johnsongrass plant response rating (johnsongrass; [4]): 95
Plant response rating, Bermudagrass (bermudagrass; [8]): 0
Plant response rating, Bermudagrass (bermudagrass; [6]): 0
Plant response rating, Bermudagrass (bermudagrass; [3]): 20
Bermudagrass plant response rating (bermudagrass; [4]): 40

CCc1nn(C(C)(C)C)nc1C(=S)Nc1cccc(C(=S)N(C)C)c1 [Compound 396]
Plant response rating (0 to 100 scale), Velvetleaf (velvetleaf; 125 g ai/ha, 0 is no effect, 100 is complete control, preemergence): 80
Velvetleaf plant response rating (velvetleaf; 125 g ai/ha, visual rating, scale 0 (no effect) to 100 (complete control), postemergence): 20
Velvetleaf plant response rating (velvetleaf; Postemergence, 500 g ai/ha, scale 0 (no effect) to 100 (complete control)): 50
Plant response rating, Cocklebur (cocklebur; [5]): 0
Plant response rating (0 = no effect, 100 = complete control), Cocklebur (cocklebur; 125 g ai/ha, preemergence): 0
Plant response rating, Cocklebur (cocklebur; [9]): 0
Plant response rating, Cocklebur (cocklebur; [10]): 0
Plant response rating, Soybean (soybean; [5]): 0
Plant response rating (0 = no effect, 100 = complete control), Soybean (soybean; 125 g ai/ha, preemergence): 75
Plant response rating, Soybean (soybean; [9]): 100
Plant response rating, Soybean (soybean; [10]): 100
Plant response rating, Nightshade (eastern black nightshade; 62 g ai/ha, scale 0 to 100): 95
Plant response rating (0 = no effect, 100 = complete control), Nightshade (eastern black nightshade; 125 g ai/ha): 100
Plant response rating, Nightshade (eastern black nightshade; 250 g ai/ha, scale 0-100): 100
Plant response rating, Nightshade (eastern black nightshade; 500 g ai/ha, scale 0 to 100 (0 no effect, 100 complete control), visual, 12 to 14 days): 100
Plant response rating, Johnsongrass (johnsongrass; [5]): 95
Plant response rating (0 = no effect, 100 = complete control), Johnsongrass (johnsongrass; 125 g ai/ha, preemergence): 100
Plant response rating, Johnsongrass (johnsongrass; [9]): 100
Plant response rating, Johnsongrass (johnsongrass; [10]): 100
Plant response rating, Bermudagrass (bermudagrass; [8]): 95
Plant response rating (0 = no effect, 100 = complete control), Bermudagrass (bermudagrass; 125 g ai/ha, preemergence): 100
Plant response rating, Bermudagrass (bermudagrass; [9]): 100
Plant response rating, Bermudagrass (bermudagrass; [10]): 100

C#CCn1nc(C(C)(C)C)cc1C(=O)Nc1cccc(C(=O)NCC)c1 [Compound 50]
Plant response rating, Velvetleaf (velvetleaf; Postemergence, 500 g ai/ha, visual rating after 13 to 15 days, scale 0 (no effect) to 100 (complete control)): 60
Velvetleaf plant response rating (velvetleaf; Preemergence, 500 g ai/ha, scale 0 to 100): 50
Velvetleaf plant response rating (velvetleaf; [1]): 40
Plant response rating, Velvetleaf (velvetleaf; [2]): 20
Plant response rating (0 = no effect, 100 = complete control), Cocklebur (cocklebur; 62 g ai/ha, preemergence): 0
Plant response rating, Cocklebur (cocklebur; [6]): 10
Plant response rating, Cocklebur (cocklebur; [3]): 80
Cocklebur plant response rating (cocklebur; [11]): 10
Plant response rating, Cocklebur (cocklebur; [12]): 10
Plant response rating, Cocklebur (cocklebur; [13]): 10
Cocklebur plant response rating (cocklebur; [4]): 80
Plant response rating, Cocklebur (cocklebur; [14]): 10
Plant response rating (0 = no effect, 100 = complete control), Soybean (soybean; 62 g ai/ha, preemergence): 0
Plant response rating, Soybean (soybean; [6]): 0
Plant response rating, Soybean (soybean; [3]): 0
Soybean plant response rating (soybean; [11]): 100
Plant response rating, Soybean (soybean; [13]): 100
Soybean plant response rating (soybean; [4]): 0
Plant response rating, Soybean (soybean; [14]): 100
Plant response rating (0 = no effect, 100 = complete control), Nightshade (eastern black nightshade; 62 g ai/ha): 0
Plant response rating, Nightshade (eastern black nightshade; [7]): 5
Plant response rating, Nightshade (eastern black nightshade; 250 g ai/ha, scale 0 to 100 (0 no effect, 100 complete control), visual, 12 to 14 days): 80
Nightshade plant response rating (eastern black nightshade; 500 g ai/ha): 95
Plant response rating (0 = no effect, 100 = complete control), Johnsongrass (johnsongrass; 62 g ai/ha, preemergence): 0
Plant response rating, Johnsongrass (johnsongrass; [3]): 0
Johnsongrass plant response rating (johnsongrass; [11]): 0
Plant response rating, Johnsongrass (johnsongrass; [12]): 0
Plant response rating, Johnsongrass (johnsongrass; [13]): 0
Johnsongrass plant response rating (johnsongrass; [4]): 0
Plant response rating, Johnsongrass (johnsongrass; [14]): 0
Plant response rating (0 = no effect, 100 = complete control), Bermudagrass (bermudagrass; 62 g ai/ha, preemergence): 0
Plant response rating, Bermudagrass (bermudagrass; [6]): 0
Plant response rating, Bermudagrass (bermudagrass; [3]): 0
Bermudagrass plant response rating (bermudagrass; [11]): 40
Plant response rating, Bermudagrass (bermudagrass; [12]): 30
Bermudagrass plant response rating (bermudagrass; Postemergence, 250 g ai/ha, scale 0 to 100): 30
Bermudagrass plant response rating (bermudagrass; [4]): 10
Plant response rating, Bermudagrass (bermudagrass; [14]): 0
